Like-named read-outs stand apart in the source and are kept apart here.
Assays:
USP1/UAF1 complex [1] = target: T1, USP1/UAF1 complex (Homo sapiens, UniProt O94782, G670A/G671A); assay: ubiquitin-AMC in vitro deubiquitination enzyme assay; assay type: biochemical
T1 construct: This modified full length USP1 clone was PCR amplified and subcloned into pFastBac-HT vectors; His tag (N); made in house; host or cells: Sf9 insect cells (baculovirus)
Protocol: Purified USP1/UAF1 complex was incubated with 1 μM C527 or DMSO for indicated time, followed by the addition of Ub-AMC at 0.5 μM final concentration. The fluorescence at […] was measured to indicate the enzymatic activity of USP1. […] 5A.
The in vitro enzymatic assays were performed using purified proteins from Sf9 cells as described previously (Cohn et al.). The assays using ubiquitin-AMC (Ub-7-amido-4-methylcoumarin; Boston Biochem) as substrate was carried out in a reaction buffer containing 20 mM HEPES-KOH (pH 7.8), 20 mM NaCl, 0.1 mg/ml ovalbumin, 0.5 mM EDTA and 10 mM dithiothreitol. The fluorescence was measured by FluoStar Galaxy Fluorometer (BMG Labtech). For the Ub-vinylsulfone (VS) assay, the proteins were incubated with Ub-VS at 0.5 μM final concentration for 1 h at 30° C., followed by the immunoblotting analysis.
In order to develop a highly sensitive assay with easy readout for high throughput detection, the fluorogenic compound Ubiquitin-7-amido-4-methylcoumarin (AMC-Ub, Boston Biochem) was used as a substrate for USP1/UAF1 enzyme complex. USP1 catalyzes the cleavage of AMC-Ub, releasing free AMC moiety, which leads to increase in fluorescence emission at 460 nm (λex=380 nm). Dang et al. (1998) Biochemistry 37:1868-79. […] Initial enzyme assay development was performed in 96-well plates with 100 μl reaction volume containing 20 mM HEPES-KOH, 0.1 mg/ml ovalbumin (Sigma), 0.5 mM EDTA, and 10 mM DTT. 2.5 nM USP1/UAF1 enzyme complex was mixed with the reaction buffer, incubated at 37° C. for 10 minutes and then 0.3 μM AMC-Ub was added. Fluorescence was measured using a Fluostar Galaxy Fluorometer (BMG Labtech Inc.).
Hits from the initial screening were analyzed further in secondary screening. In this step, the compounds were re-tested for inhibition using the AMC-Ub in vitro enzyme assay. After reconfirming inhibition, different concentration range of the inhibitors were tested to show dose dependency of inhibition and IC50 calculation.

USP1/UAF1 complex [2] = target: T1, USP1/UAF1 complex; assay: high throughput screening for inhibitors of USP1 deubiquitinating activity; assay type: biochemical; conditions: library of approximately 150,000 compounds
Protocol: The ubiquitin-Rho based enzyme assay for high throughput screening was established in a 384-well format. The reaction buffer containing and USP1/UAF1 complex were added in 384 well plates using automated liquid handling robot-Bio-Tek Microfill (Bio-Tek Instrments Inc., VT), followed by addition of the compounds (in DMSO) from the compound library plates to wells using a pin transfer robotic system at a final concentration of 10 μM. The reaction was composed of 0.1 nM purified USP1/UAF complex, 75 nM ubiquitin Rhodamine (Ub-Rho, Boston Biochem, U-600) and 2 μM ubiquitin. Fluorescence was monitored in a FluoStar Galaxy Fluorometer (BMG Labtech). Fluorescence emission at 535 nm (λex=485 nm) was measured in an automated plate reader Envision 2 (Perkin Elmer, Mass.).
In order to develop a highly sensitive assay with easy readout for high throughput detection, the fluorogenic compound Ubiquitin-7-amido-4-methylcoumarin (AMC-Ub, Boston Biochem) was used as a substrate for USP1/UAF1 enzyme complex. USP1 catalyzes the cleavage of AMC-Ub, releasing free AMC moiety, which leads to increase in fluorescence emission at 460 nm (λex=380 nm). Dang et al. (1998) Biochemistry 37:1868-79. Catalytic activity towards AMC-Ub increases 35 fold compared to USP1 enzyme alone. Initial enzyme assay development was performed in 96-well plates with 100 μl reaction volume containing 20 mM HEPES-KOH, 0.1 mg/ml ovalbumin (Sigma), 0.5 mM EDTA, and 10 mM DTT. 2.5 nM USP1/UAF1 enzyme complex was mixed with the reaction buffer, incubated at 37° C. for 10 minutes and then 0.3 μM AMC-Ub was added. Fluorescence was measured using a Fluostar Galaxy Fluorometer (BMG Labtech Inc.).
Once the preliminary enzyme assay was established in 96-well format, it was optimized for 384 wells for high throughput screening (HTS) of inhibitors. The major points to be considered were the volume of the reaction and amount of AMC-Ub substrate to be used in the assay. Since the price of AMC-Ub is very high, in order to make it a feasible assay for HTS, lowest workable amount of the AMC conjugate was used. Reaction volume was minimized to 30 μl in order to meet the recommendation of ICCB-L screening facility (Harvard). In the preliminary optimization experiment, a series of pilot experiments were performed with varying AMC-Ub concentrations (0.025 μM to 0.2 μM), along with the varying concentration of USP1/UAF1 complex (0.2 nM to 3.2 nM). […] After incubating the enzyme and buffer at 37° C. for 10 minutes, AMC-Ub was added and fluorescence emission at 460 nm (λex=380 nm) was measured in an automated plate reader Envision 2 (Perkin Elmer). Fluorescence reading for all time points up to one hour was noted and the data for different AMC-Ub concentration range was plotted with each USP1/UAF1 enzyme complex concentration. […]

HeLa cells = assay: sensitization of HeLa cells to mitomycin C, cell survival by redox dye; assay type: cell-based, human; conditions: 20 micromolar compound; MMC 0, 200, or 500 nM; FIG. 4
Protocol: HeLa cells were pretreated for six hours with selected concentrations (0, 200, or 500 nM) of mitomycin C (MMC), washed, then exposed to selected concentrations (0, 10, or 20 μM) of the compound of Formula IV (527) for eight hours. Cell survival was measured by redox dye.

T1 sequence (O94782 whole entry G670A/G671A): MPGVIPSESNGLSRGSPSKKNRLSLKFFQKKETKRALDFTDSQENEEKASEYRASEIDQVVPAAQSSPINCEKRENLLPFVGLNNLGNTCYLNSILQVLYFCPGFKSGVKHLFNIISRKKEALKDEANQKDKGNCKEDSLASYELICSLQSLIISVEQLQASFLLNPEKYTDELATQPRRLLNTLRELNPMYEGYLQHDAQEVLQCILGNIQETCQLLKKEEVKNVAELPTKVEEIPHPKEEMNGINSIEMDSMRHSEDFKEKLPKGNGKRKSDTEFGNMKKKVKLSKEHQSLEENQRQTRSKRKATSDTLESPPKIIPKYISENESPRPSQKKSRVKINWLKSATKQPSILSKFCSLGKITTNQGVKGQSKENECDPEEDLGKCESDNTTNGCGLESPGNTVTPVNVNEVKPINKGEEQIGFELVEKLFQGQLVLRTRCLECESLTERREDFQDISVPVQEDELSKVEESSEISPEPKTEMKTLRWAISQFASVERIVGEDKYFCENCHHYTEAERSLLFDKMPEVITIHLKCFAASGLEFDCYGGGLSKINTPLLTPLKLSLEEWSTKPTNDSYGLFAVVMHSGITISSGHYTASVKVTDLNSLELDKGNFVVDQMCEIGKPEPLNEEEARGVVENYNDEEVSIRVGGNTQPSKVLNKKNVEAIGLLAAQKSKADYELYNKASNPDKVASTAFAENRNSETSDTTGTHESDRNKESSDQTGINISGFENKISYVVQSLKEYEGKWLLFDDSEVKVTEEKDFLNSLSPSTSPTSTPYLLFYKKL
T1 sequence (Q8TAF3 whole entry partner): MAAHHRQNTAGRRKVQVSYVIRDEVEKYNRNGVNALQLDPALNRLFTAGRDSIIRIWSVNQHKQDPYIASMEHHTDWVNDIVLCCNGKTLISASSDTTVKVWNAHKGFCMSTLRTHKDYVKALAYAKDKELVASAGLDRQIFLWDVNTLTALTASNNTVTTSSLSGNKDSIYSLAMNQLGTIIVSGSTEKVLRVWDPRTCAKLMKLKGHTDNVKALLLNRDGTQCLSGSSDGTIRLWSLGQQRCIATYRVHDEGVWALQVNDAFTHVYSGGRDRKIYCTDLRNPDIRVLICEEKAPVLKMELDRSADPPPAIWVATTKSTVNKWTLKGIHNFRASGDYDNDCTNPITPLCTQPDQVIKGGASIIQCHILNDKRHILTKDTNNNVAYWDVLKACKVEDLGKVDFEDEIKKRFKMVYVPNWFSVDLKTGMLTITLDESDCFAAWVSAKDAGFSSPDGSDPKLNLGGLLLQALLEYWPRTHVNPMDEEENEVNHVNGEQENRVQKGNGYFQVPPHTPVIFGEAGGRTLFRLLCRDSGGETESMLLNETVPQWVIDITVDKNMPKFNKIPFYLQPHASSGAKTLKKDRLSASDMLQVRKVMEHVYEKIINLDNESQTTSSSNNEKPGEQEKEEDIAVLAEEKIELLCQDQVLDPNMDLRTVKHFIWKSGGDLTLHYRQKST

Structure (SMILES): O=C1c2ccccc2C(=O)c2oc(-c3ccc(F)cc3)nc21 [Formula IV (527)]
- IC50 (USP1/UAF1 complex [1]; 4 hour preincubation, AMC-Ub in vitro enzyme assay, read-out: IC50): 134 nM
- inhibition of DUB activity (fluorescence) with pretreatment time (USP1/UAF1 complex [1]; single dose 1 uM, variable time periods, FIG. 5A): serial increase in inhibition of DUB activity
- DUB activity with increasing dose (USP1/UAF1 complex [1]; treatment for 2 h, 0.5 to 2 μM, FIG. 5B): dose-dependent decrease in DUB activity
- IC50 (USP1/UAF1 complex [1]; ubiquitin-AMC substrate, FIG. 5C, read-out: IC50 of C527 for the USP1/UAF1 complex): 880 ± 30 nM
- identified as inhibitor of USP1 in initial in vitro screening (USP1/UAF1 complex [2]): inhibitors of USP1
- sensitization to the cytotoxic effects of MMC (HeLa cells): sensitization of the HeLa cells

From US10653676B2 (Dana-Farber Cancer Institute, Inc., priority 2010, dated 2020)
